Key:
[1] = Liquid-liquid separation of cyclohexanone from cyclohexane, distribution coefficient by gas chromatography; details: for Cyclohexanone D (distribution coefficient): concentration in extracting solvent phase divided by concentration in cyclohexane phase, 1 mL stock solution + 1 mL extracting solvent; for Cyclohexanone Log D: extracting solvent/cyclohexane, equal volumes
Description: As used herein, the term “distribution coefficient” referring to the liquid-liquid separation refers to the concentration of the separable component in the ionic liquid-based phase divided by the concentration of the separable component in the non-polar solvent-based phase. These concentrations are measured subsequent to settling, i.e. when the separation mixture has reached equilibrium subsequent to the vigorous shaking.
The general method used for all the examples was as follows.
Stock solution; 250 mg cyclohexanol (Molecular Weight=100 gmol^−1) and 250 mg cyclohexanone (Molecular Weight=98 gmol^−1) in 10 g of cyclohexane (Molecular Weight=84 gmol^−1).
Method: add 1 mL (0.8 g) of stock solution (20 mg each of cyclohexanol and cyclohexanone) to 1 mL of ionic liquid and shake vigorously. After settling time and complete phase separation, 3 drops of the top layer were added to a vial and filled with ethylene chloride. Gas chromatography analysis was used to provide the number of moles of the separable component in each liquid phase. The distribution coefficient for the separation was then calculated.

[2] = Liquid-liquid separation of cyclohexanol from cyclohexane, distribution coefficient by gas chromatography; format: physicochemical; details: for Cyclohexanol D (distribution coefficient): concentration in extracting solvent phase divided by concentration in cyclohexane phase, 1 mL stock solution + 1 mL extracting solvent; for Cyclohexanol Log D: extracting solvent/cyclohexane, equal volumes
Description: The distribution coefficient for the separation was then calculated.

[3] = Extraction of 2-octanone from octane, IL/Octane distribution coefficient; format: physicochemical; details: concentration of substrate in IL divided by concentration in octane
Description: (§1) A corresponding set of experiments was conducted to study the extraction of octanol and 2-octanone from octane using ionic liquids. The results are presented in Table 2 below, in which the IL/Octane distribution coefficient is calculated as the concentration of substrate in IL divided by the concentration of substrate in octane.

[4] = Extraction of octanol from octane, IL/Octane distribution coefficient; format: physicochemical; details: concentration of substrate in IL divided by concentration in octane
Description: as §1

Row | SMILES | Cyclohexanone D (distribution coefficient) [1] | Cyclohexanol D (distribution coefficient) [2] | IL/Octane distribution coefficient 2-Octanone [3] | IL/Octane distribution coefficient Octanol [4] | Cyclohexanol Log D [2] | Cyclohexanone Log D [1]
1 | CCCCn1cc[n+](C)c1 [Example 4] | 1.51 | 2.32 | – | – | – | –
2 | CCCCn1cc[n+](C)c1 [Example 6] | 4.38 | 4.10 | – | – | – | –
3 | C[S+](C)[O-] [Example 19, dimethyl sulfoxide, reference compound] | – | – | 0.89 | 7.67 | – | –
4 | C[N+]1(CCCCS(=O)(=O)O)CCCC1 [Example 8] | 0.21 | 5.96 | – | – | 0.78 | –
5 | CC[n+]1ccccc1 [Example 2] | 3.40 | 1.60 | – | – | 0.20 | –
6 | O [Example 1, H2O, reference compound] | 0.34 | 0.86 | – | – | −0.07 | −0.47

More lines, now with the values ahead:

Row | Cyclohexanone D (distribution coefficient) [1] | Cyclohexanol D (distribution coefficient) [2] | IL/Octane distribution coefficient 2-Octanone [3] | IL/Octane distribution coefficient Octanol [4] | Cyclohexanol Log D [2] | Cyclohexanone Log D [1] | SMILES
7 | – | – | 2.08 | 1.06 | – | – | CCCCn1cc[n+](C)c1 [Example 15]
8 | 2.11 | 1.77 | – | – | – | – | CCCC[n+]1ccn(C)c1 [Example 3]
9 | – | – | 0.16 | 1.44 | – | – | Br.CCCC[n+]1ccn(C)c1 [Example 17]
10 | 5.00 | 5.12 | – | – | 0.71 | – | CCCC[N+]1(C)CCCC1 [Example 7]
11 | 3.00 | 2.91 | – | – | 0.46 | 0.478 | C[N+](C)(C)CCO [Example 5]
12 | 2.80 | 24.79 | – | – | 1.39 | 0.45 | C[S+](C)[O-] [Example 14, dimethyl sulfoxide, reference compound]
